Measured values taken from patent US7074789B2, “Kinase inhibitors” (Amgen Inc., priority 1999, dated 2006).

Legend:
Type in all cases: biochemical
Hck-1 = molecular target: T1, Hck-1 (Homo sapiens, UniProt P08631); test: Kinase inhibition assay (33P transfer), Hck; settings: Table 6, Hck-1 kinase inhibition class
T1 construct: Kinases are expressed as either kinase domains or full length constructs; made in house

AKT = molecular target: T2, AKT (Homo sapiens, UniProt Q9Y243); test: Kinase inhibition assay (33P transfer), AKT; settings: Table 2, kinase inhibition class; read-out: AKT3-1
T2 construct: Kinases are expressed as either kinase domains or full length constructs; made in house
In short: (§1)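 Measured by scintillation: radiolabelled phosphate added by tagged recombinant kinases to poly(Glu,Tyr) 4:1 or poly(Arg,Ser) 3:1 attached to microtiter wells, counted once free label was washed away with 0.5% phosphoric acid.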

Lyn = molecular target: T3, Lyn (Homo sapiens, UniProt P07948); test: Kinase inhibition assay (33P transfer), Lyn; settings: Table 6, Lyn-1 kinase inhibition class
T3 construct: Kinases are expressed as either kinase domains or full length constructs; made in house
In short: (§2)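 IC50: inhibitor concentration lowering 33P incorporation into immobilised substrate by 50%. Label transferred from ATP to poly(Glu,Tyr) 4:1 or poly(Arg,Ser) 3:1 is measured after a 0.5% phosphoric acid wash by liquid scintillation.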

IGFR-1 = molecular target: T4, IGFR-1 (Homo sapiens, UniProt P08069); test: Kinase inhibition assay (33P transfer), IGFR-1; settings: Table 2, kinase inhibition class
T4 construct: Kinases are expressed as either kinase domains or full length constructs; made in house

ErbB4 = molecular target: T5, ErbB4 (Homo sapiens, UniProt Q15303); test: Kinase inhibition assay (33P transfer), ErbB4; settings: read-out: ErbB4-1
T5 construct: Kinases are expressed as either kinase domains or full length constructs; made in house

FGFR1 = molecular target: T6, FGFR1 (Homo sapiens, UniProt P11362); test: Kinase inhibition assay (33P transfer), FGFR1; settings: read-out: FGFR1-1
T6 construct: Kinases are expressed as either kinase domains or full length constructs; made in house

Fyn = molecular target: T7, Fyn (Homo sapiens, UniProt P06241); test: Kinase inhibition assay (33P transfer), Fyn; settings: read-out: Fyn-1
T7 construct: Kinases are expressed as either kinase domains or full length constructs; made in house
In short: as §2

EGFR = molecular target: T8, EGFR (Homo sapiens, UniProt P00533); test: Kinase inhibition assay (33P transfer), EGFR; settings: Table 2, kinase inhibition class; read-out: EGFR-1
T8 construct: Kinases are expressed as either kinase domains or full length constructs; made in house
In short: as §2

Tek = molecular target: T9, Tek (Homo sapiens, UniProt Q02763); test: Kinase inhibition assay (33P transfer), Tek; settings: read-out: Tek-1
T9 construct: Kinases are expressed as either kinase domains or full length constructs; made in house
In short: as §2

c-Met = molecular target: T10, c-Met (Homo sapiens, UniProt P08581); test: Kinase inhibition assay (33P transfer), c-Met; settings: Table 2, kinase inhibition class; read-out: Met-1
T10 construct: Kinases are expressed as either kinase domains or full length constructs; made in house
In short: as §2

Itk = molecular target: T11, Itk (Homo sapiens, UniProt Q08881); test: Kinase inhibition assay (33P transfer), Itk; settings: Table 3; read-out: Itk-1
T11 construct: Kinases are expressed as either kinase domains or full length constructs; made in house
T11 sequence (Q08881 1-620): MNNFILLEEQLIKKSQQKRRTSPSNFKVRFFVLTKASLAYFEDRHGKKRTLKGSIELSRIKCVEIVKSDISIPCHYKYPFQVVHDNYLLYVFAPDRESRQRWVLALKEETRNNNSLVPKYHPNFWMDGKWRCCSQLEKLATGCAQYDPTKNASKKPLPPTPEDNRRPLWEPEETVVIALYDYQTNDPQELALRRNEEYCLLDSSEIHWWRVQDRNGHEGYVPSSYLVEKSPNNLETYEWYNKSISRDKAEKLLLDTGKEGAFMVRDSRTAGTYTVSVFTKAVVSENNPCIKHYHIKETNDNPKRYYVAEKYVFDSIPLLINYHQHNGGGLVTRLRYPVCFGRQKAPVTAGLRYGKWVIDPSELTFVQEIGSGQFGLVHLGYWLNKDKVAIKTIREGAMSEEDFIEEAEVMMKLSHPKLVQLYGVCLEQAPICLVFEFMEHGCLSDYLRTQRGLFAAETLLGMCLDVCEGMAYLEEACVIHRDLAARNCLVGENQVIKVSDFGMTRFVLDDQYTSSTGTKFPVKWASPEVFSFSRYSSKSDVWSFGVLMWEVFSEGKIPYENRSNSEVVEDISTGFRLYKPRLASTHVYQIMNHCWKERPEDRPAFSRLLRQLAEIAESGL
In short: as §2

Kdr = molecular target: T12, Kdr (Homo sapiens, UniProt P35968); test: Kinase inhibition assay (33P transfer), Kdr; settings: Table 3; read-out: KDR-1
T12 construct: Kinases are expressed as either kinase domains or full length constructs; made in house
In short: as §1

Zap-70 = molecular target: T13, Zap-70 (Homo sapiens, UniProt P43403); test: Kinase inhibition assay (33P transfer), Zap-70; settings: Table 3; read-out: Zap-1
T13 construct: Kinases are expressed as either kinase domains or full length constructs; made in house
T13 sequence (P43403 1-619): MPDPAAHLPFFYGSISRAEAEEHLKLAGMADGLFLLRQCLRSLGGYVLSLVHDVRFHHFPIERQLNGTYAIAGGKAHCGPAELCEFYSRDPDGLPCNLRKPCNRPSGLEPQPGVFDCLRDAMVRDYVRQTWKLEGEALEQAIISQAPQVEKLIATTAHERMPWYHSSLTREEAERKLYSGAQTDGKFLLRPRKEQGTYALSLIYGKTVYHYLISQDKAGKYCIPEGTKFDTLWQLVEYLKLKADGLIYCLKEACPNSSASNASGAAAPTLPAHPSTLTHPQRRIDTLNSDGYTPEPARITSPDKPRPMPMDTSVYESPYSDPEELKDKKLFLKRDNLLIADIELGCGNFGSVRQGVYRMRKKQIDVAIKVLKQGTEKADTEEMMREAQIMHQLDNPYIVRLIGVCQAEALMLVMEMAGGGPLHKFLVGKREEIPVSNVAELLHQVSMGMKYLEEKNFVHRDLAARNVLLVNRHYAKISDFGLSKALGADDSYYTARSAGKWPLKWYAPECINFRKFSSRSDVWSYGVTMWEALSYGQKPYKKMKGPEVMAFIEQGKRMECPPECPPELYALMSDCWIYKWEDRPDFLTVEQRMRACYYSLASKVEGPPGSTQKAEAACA
In short: as §1

Lck = molecular target: T14, Lck (Homo sapiens, UniProt P06239); test: Kinase inhibition assay (33P transfer), Lck; settings: Table 3; read-out: Lck-1
T14 construct: Kinases are expressed as either kinase domains or full length constructs; made in house
In short: as §1

T2 sequence (Q9Y243 whole entry, the tested form may be a part): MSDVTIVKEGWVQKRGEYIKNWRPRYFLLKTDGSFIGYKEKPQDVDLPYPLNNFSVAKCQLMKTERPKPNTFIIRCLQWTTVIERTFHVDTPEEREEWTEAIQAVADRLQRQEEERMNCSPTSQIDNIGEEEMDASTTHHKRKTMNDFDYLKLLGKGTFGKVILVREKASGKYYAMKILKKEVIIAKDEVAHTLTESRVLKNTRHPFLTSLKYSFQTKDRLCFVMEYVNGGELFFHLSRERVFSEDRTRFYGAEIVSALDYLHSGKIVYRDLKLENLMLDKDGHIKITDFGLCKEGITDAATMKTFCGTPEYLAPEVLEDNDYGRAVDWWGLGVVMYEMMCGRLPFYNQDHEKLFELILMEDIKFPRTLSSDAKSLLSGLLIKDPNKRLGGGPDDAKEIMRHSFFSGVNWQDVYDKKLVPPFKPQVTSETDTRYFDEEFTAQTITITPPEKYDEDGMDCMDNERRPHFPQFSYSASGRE
T9 sequence (Q02763 23-1124, species assumed): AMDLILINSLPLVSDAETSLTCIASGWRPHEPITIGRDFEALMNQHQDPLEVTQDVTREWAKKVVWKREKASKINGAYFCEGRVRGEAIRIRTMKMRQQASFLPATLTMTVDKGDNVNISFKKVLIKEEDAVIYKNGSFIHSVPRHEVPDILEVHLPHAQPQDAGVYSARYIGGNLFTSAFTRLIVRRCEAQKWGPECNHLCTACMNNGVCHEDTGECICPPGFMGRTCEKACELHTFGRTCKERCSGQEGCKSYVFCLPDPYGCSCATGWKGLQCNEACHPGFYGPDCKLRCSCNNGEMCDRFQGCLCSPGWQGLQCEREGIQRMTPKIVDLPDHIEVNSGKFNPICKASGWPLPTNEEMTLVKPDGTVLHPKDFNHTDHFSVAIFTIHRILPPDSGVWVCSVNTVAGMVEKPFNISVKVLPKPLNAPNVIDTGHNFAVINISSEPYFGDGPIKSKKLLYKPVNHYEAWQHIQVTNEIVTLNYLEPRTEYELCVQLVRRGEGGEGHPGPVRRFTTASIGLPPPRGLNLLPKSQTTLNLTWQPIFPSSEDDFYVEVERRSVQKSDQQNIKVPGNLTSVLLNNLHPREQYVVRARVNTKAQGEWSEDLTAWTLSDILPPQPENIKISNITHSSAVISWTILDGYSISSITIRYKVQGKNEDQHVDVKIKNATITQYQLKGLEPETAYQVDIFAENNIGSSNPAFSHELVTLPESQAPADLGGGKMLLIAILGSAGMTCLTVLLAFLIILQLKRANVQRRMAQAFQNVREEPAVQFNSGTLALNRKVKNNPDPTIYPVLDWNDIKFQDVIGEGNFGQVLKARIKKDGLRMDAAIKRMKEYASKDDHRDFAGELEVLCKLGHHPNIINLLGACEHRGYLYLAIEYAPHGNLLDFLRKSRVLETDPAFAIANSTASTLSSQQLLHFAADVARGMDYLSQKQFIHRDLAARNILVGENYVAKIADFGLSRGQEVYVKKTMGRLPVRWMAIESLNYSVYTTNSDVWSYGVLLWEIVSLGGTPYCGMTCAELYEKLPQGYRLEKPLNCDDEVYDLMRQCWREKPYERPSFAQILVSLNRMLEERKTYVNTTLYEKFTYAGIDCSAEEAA
T5 sequence (Q15303 26-1308, species assumed): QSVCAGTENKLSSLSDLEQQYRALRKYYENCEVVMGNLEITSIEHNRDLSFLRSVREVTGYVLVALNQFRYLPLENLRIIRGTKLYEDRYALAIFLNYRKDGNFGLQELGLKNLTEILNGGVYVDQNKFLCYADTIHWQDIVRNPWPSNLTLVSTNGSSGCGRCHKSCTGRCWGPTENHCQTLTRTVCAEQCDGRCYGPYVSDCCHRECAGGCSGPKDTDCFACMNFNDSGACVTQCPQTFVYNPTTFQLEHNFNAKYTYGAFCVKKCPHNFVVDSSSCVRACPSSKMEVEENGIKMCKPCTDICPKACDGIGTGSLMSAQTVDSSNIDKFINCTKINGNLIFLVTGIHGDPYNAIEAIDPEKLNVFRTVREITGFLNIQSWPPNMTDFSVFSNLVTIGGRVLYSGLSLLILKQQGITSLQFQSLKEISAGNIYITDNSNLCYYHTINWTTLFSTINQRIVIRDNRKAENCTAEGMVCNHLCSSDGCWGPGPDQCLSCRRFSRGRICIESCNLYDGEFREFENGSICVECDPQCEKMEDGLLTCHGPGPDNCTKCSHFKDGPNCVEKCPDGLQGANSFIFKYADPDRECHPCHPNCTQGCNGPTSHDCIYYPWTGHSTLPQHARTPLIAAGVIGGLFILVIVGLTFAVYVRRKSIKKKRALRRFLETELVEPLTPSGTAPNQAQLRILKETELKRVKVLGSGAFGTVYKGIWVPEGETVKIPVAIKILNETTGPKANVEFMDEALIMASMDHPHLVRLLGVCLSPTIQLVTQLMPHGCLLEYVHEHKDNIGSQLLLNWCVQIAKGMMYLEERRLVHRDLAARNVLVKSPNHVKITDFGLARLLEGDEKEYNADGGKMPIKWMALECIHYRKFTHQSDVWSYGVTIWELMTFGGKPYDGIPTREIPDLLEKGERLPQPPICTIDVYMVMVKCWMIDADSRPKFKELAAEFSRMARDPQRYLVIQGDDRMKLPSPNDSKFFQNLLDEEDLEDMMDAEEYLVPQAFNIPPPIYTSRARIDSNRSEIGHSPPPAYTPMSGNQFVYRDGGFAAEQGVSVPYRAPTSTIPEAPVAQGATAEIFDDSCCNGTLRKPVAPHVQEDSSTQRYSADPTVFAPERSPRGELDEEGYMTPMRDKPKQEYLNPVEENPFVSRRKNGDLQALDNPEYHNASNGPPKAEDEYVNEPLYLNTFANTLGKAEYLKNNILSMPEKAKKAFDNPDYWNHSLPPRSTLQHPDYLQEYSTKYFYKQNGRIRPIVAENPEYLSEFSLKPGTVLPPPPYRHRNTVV
T14 sequence (P06239 whole entry, species assumed, the tested form may be a part): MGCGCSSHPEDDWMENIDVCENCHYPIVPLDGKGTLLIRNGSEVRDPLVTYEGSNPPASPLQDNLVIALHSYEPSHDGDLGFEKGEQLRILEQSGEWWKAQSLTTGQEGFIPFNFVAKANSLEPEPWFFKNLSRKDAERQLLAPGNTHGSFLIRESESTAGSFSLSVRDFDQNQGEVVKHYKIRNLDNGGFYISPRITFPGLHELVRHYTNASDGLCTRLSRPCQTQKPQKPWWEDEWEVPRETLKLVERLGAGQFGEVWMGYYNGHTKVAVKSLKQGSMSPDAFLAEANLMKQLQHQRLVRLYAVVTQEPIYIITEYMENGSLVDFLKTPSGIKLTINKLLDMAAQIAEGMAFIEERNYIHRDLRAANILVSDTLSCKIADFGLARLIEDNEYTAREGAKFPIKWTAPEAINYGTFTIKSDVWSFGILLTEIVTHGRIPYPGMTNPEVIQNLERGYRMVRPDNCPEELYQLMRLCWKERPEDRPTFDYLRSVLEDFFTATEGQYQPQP
T8 sequence (P00533 25-1210, species assumed): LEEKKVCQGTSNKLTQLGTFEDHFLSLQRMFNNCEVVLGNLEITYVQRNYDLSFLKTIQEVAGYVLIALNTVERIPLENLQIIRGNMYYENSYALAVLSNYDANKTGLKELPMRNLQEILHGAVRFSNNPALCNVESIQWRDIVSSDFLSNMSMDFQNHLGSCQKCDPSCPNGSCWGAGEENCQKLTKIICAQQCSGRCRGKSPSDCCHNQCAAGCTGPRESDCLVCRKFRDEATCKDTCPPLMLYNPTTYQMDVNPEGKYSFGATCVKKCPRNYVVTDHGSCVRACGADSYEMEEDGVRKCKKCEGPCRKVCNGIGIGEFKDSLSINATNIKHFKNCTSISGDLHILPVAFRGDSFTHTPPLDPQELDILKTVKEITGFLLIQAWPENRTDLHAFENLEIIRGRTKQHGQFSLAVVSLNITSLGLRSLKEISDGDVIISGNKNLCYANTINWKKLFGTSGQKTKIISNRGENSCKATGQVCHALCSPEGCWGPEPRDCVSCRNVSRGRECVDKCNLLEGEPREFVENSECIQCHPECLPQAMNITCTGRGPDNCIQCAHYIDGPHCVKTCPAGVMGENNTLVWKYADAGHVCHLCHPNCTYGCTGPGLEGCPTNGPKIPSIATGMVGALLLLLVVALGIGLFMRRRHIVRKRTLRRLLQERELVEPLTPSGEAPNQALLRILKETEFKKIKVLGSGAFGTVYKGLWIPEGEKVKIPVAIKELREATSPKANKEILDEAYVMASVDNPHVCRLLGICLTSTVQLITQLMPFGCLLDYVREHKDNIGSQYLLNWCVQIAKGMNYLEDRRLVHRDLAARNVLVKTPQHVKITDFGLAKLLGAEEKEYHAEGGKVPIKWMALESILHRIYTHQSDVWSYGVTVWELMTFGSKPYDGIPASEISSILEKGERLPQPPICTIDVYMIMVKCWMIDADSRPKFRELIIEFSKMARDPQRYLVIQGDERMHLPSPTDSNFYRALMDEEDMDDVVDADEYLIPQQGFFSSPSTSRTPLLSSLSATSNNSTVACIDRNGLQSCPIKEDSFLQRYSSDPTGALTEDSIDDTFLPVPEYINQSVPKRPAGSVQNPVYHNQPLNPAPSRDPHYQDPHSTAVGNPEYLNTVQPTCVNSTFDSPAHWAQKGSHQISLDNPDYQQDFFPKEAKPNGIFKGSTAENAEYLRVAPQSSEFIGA
T7 sequence (P06241 whole entry, species assumed, the tested form may be a part): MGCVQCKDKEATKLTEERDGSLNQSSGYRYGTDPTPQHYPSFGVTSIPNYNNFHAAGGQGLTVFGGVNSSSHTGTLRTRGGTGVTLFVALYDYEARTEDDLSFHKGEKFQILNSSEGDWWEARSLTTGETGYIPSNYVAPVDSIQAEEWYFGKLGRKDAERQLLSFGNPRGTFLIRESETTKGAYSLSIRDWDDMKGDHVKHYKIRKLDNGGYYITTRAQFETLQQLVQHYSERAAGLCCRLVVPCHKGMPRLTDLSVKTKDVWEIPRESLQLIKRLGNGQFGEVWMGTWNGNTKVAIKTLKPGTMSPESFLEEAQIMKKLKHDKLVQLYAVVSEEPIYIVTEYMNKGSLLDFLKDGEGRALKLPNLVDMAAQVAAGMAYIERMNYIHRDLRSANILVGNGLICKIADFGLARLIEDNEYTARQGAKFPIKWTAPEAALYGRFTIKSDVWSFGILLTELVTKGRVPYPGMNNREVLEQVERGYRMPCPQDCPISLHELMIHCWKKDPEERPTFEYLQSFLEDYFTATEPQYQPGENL

Row | IC50 (Hck-1) [µM] | IC50 (AKT) [µM] | IC50 (Lyn) [µM] | IC50 (IGFR-1) [µM] | IC50 (ErbB4) [µM] | IC50 (FGFR1) [µM] | IC50 (Fyn) [µM] | IC50 (EGFR) [µM] | IC50 (Tek) [µM] | IC50 (c-Met) [µM] | IC50 (Itk) [µM] | IC50 (Kdr) [µM] | IC50 (Zap-70) [µM] | IC50 (Lck) [µM] | Structure (SMILES)
1 | 0.94 to 5.64 | > 10.6 | < 0.94 | 5.64 to 8.23 | 0.94 to 5.64 | < 0.94 | 0.94 to 5.64 | 0.94 to 5.64 | 0.94 to 5.64 | < 0.94 | 0.94 to 5.64 | < 0.94 | 8.23 to 10.6 | 0.94 to 5.64 | COc1cc(Nc2ncnc(N3c4ccc(F)cc4CCC3C)n2)cc(OC)c1OC (stereo not shown) [Compound 298]
2 | > 11.4 | > 11.4 | < 1.02 | > 11.4 | > 11.4 | < 1.02 | < 1.02 | < 1.02 | 8.9 to 11.4 | 1.02 to 6.1 | > 11.4 | < 1.02 | > 11.4 | < 1.02 | COc1cc(Nc2ncnc(N3CCCc4ccccc43)n2)cc(OC)c1OC [Compound 609]
3 | > 11.7 | > 11.7 | < 1.04 | < 1.04 | 1.04 to 6.23 | 6.23 to 9.08 | 1.04 to 6.23 | < 1.04 | 9.08 to 11.7 | 6.23 to 9.08 | 6.23 to 9.08 | < 1.04 | > 11.7 | 1.04 to 6.23 | COc1cc(Nc2ncnc(Nc3ccc(C)c(F)c3)n2)cc(OC)c1OC [Compound 300]
4 | > 11 | > 11 | > 11 | > 11 | > 11 | > 11 | > 11 | > 11 | > 11 | > 11 | > 11 | 0.982 to 5.89 | > 11 | > 11 | COc1cc(Nc2ncnc(-n3ccc4c(OC)cccc43)n2)cc(OC)c1OC [Compound 238]
5 | > 11.9 | > 11.9 | 9.25 to 11.9 | 1.06 to 6.34 | > 11.9 | > 11.9 | > 11.9 | 9.25 to 11.9 | 9.25 to 11.9 | 1.06 to 6.34 | > 11.9 | < 1.06 | > 11.9 | 1.06 to 6.34 | COc1cc(Nc2ncnc(-n3cnc4ccccc43)n2)cc(OC)c1OC [Compound 186]
6 | > 11.2 | > 11.2 | 5.99 to 8.74 | 0.999 to 5.99 | > 11.2 | > 11.2 | 0.999 to 5.99 | > 11.2 | 0.999 to 5.99 | 0.999 to 5.99 | > 11.2 | < 0.999 | > 11.2 | 0.999 to 5.99 | COc1ccc(Sc2ncnc(Nc3cc(OC)c(OC)c(OC)c3)n2)cc1 [Compound 175]
7 | > 11 | > 11 | > 11 | 5.89 to 8.59 | 5.89 to 8.59 | 0.982 to 5.89 | > 11 | > 11 | > 11 | > 11 | > 11 | < 0.982 | > 11 | > 11 | COc1cc(Nc2ncnc(Nc3nc4ccccc4n3C)n2)cc(OC)c1OC [Compound 938]
8 | > 11.9 | > 11.9 | 1.05 to 6.33 | < 1.05 | 1.05 to 6.33 | < 1.05 | 1.05 to 6.33 | 1.05 to 6.33 | > 11.9 | < 1.05 | 1.05 to 6.33 | < 1.05 | > 11.9 | 1.05 to 6.33 | COc1ccc(Nc2ncnc(Nc3cc(-c4ccco4)n[nH]3)n2)cc1OC [Compound 337]
9 | 6.01 to 8.76 | > 11.3 | < 1 | < 1 | < 1 | 1 to 6.01 | 1 to 6.01 | 1 to 6.01 | > 11.3 | < 1 | 6.01 to 8.76 | 1 to 6.01 | > 11.3 | 1 to 6.01 | COc1cc(Nc2ncnc(Nc3cc(C(C)(C)C)[nH]n3)n2)cc(OC)c1OC [Compound 313]
10 | > 10.3 | > 10.3 | > 10.3 | > 10.3 | > 10.3 | > 10.3 | > 10.3 | 8 to 10.3 | > 10.3 | > 10.3 | > 10.3 | 0.914 to 5.49 | > 10.3 | > 10.3 | COc1cc2ccn(-c3ncnc(Nc4cc(OC)c(OC)c(OC)c4)n3)c2cc1OC [Compound 239]
11 | > 12.7 | > 12.7 | 1.13 to 6.79 | 6.79 to 9.9 | 1.13 to 6.79 | 1.13 to 6.79 | < 1.13 | < 1.13 | > 12.7 | > 12.7 | 9.9 to 12.7 | < 1.13 | > 12.7 | 1.13 to 6.79 | COc1ccc(Nc2ncnc(Nc3ccc(C)c(O)c3)n2)cc1OC [Compound 119]
12 | > 10.9 | > 10.9 | > 10.9 | > 10.9 | > 10.9 | > 10.9 | > 10.9 | > 10.9 | > 10.9 | > 10.9 | > 10.9 | 0.971 to 5.83 | > 10.9 | > 10.9 | COc1cc(Nc2ncnc(-n3ccc4cc(Cl)ccc43)n2)cc(OC)c1OC [Compound 198]
13 | > 9.14 | > 9.14 | > 9.14 | > 9.14 | > 9.14 | > 9.14 | > 9.14 | > 9.14 | > 9.14 | > 9.14 | > 9.14 | < 0.812 | > 9.14 | > 9.14 | COc1ccc2c(c1)c(CCNC(C)=O)cn2-c1ncnc(Nc2cc(OC)c(OC)c(OC)c2)n1 [Compound 339]
14 | 6.01 to 8.76 | > 11.3 | < 1 | > 11.3 | 1 to 6.01 | 6.01 to 8.76 | 1 to 6.01 | < 1 | 1 to 6.01 | 1 to 6.01 | 1 to 6.01 | < 1 | > 11.3 | < 1 | COc1cc(Nc2ncnc(N3CCCC4CCCCC43)n2)cc(OC)c1OC (stereo not shown) [Compound 314]
